Reference: patent publication US20250073351A1, “IMPROVED COMPOSITIONS FOR DELIVERY OF MRNA” (TRANSLATE BIO, INC., priority 2021, published 2025)

Tested on: lungs of mice
Assay: In vivo screen of cationic lipids for pulmonary delivery of FFL mRNA-LNP (IVIS imaging)
Details: LNP with DOPE, DMG-PEG2K, optionally cholesterol; about 5 hours post-dose
Method: In this example, various cationic lipids were tested for in Wvo efficacy when mRNA encapsulated in lipid nanoparticles (mRNA-LNP) were administered to mice by pulmonary delivery. The cationic lipids were tested for both potency, as determined by levels of protein production, and tolerability, as determined by side effects associated with clearance and metabolism.
About 150 cationic lipids were tested. (FIG. 16). Each cationic lipid was used in preparing lipid nanoparticles encapsulating mRNA encoding firefly luciferase protein (FFL mRNA) according to methods known in the art. For example, suitable methods for mRNA encapsulation include methods described in International Publication Nos. WO2016/004318 and WO 2018/089801, which are hereby incorporated by reference in their entirety. The tested lipid nanoparticles comprised a lipid component consisting of a cationic lipid, a non-cationic lipid (DOPE), a PEG-modified lipid (DMG-PEG2K), and optionally cholesterol.
Lipid nanoparticle formulations comprising FFL mRNA were administered to mice. At approximately 5 hours post-dose, the animals were dosed with luciferin by intraperitoneal injection and all animals were imaged using an IVIS imaging system to measure luciferase production in the lung. […] Some cationic lipids remarkably had greater than 50-fold increase in pulmonary protein expression as compared to other cationic lipids.

| Compound | potency as determined by the average radiance detected in mouse lungs |
| --- | --- |
| CCCCC/C=C\C/C=C\CCCCCCCC(=O)OCC(COC(=O)CCCCCCC/C=C\C/C=C\CCCCC)(COC(=O)CCCCCCC/C=C\C/C=C\CCCCC)NCCS(=O)(=O)NCCN(C)C [GL-TES-SA-DME-E18-2, 2-((2-(N-(2-(dimethylamino)ethyl)sulfamoyl)ethyl)amino)-2-((((9Z,12Z)-octadeca-9,12-dienoyl)oxy)methyl)propane-1,3-diyl (9Z,9′Z,12Z,12′Z)-bis(octadeca-9,12-dienoate)] | particularly high potency |
| CCCCC/C=C\C/C=C\CCCCCCCC(=O)OCC(COC(=O)CCCCCCC/C=C\C/C=C\CCCCC)(COC(=O)CCCCCCC/C=C\C/C=C\CCCCC)NCCS(=O)(=O)NCCCN(C)C [GL-TES-SA-DMP-E18-2] | particularly high potency |
| CCCCCCCCC(O)CN(CCCC(=O)OCCN1CC(C)N(CCOC(=O)CCCN(CC(O)CCCCCCCC)CC(O)CCCCCCCC)CC1C)CC(O)CCCCCCCC (stereo not drawn) [HEP-E3-E10] | particularly high potency |
| CCCCCCCCC(O)CN(CCCCC(=O)OCCN1CC(C)N(CCOC(=O)CCCCN(CC(O)CCCCCCCC)CC(O)CCCCCCCC)CC1C)CC(O)CCCCCCCC (stereo not drawn) [HEP-E4-E10] | particularly high potency |
| CCCCCCCCOC(=O)CC(CC(=O)OCCCCCCCC)(OC(=O)CCN(C)C)C(=O)OCCCCCCCC [TL1-01D-DMA, trioctyl 2-((3-(dimethylamino)propanoyl)oxy)propane-1,2,3-tricarboxylate] | particularly high potency |
| CCCCCCCCCCCCCCOC(=O)CC(CC(=O)OCCCCCCCCCCCCCC)(OC(=O)CCN(C)C)C(=O)OCCCCCCCCCCCCCC [TL1-04D-DMA] | particularly high potency |
